Data as given in PMC10253812, “Novel 2-alkythio-4-chloro-N-[imino(heteroaryl)methyl]benzenesulfonamide Derivatives: Synthesis, Molecular Structure, Anticancer Activity and Metabolic Stability” (International Journal of Molecular Sciences, 2023).

Assays:
[1] = In vitro metabolic stability assay; format: in vitro ADME, human; settings: for half-life at 10 μM: pH 7.4, human liver microsomes 0.5 mg/mL, 1 mM NADPH, 10 μM compound, 37 °C, n = 3, read-out: in vitro metabolic half-life t1/2
Experimental: Human liver microsomes along with NADPH were used to assess their susceptibility to undergo first-phase oxidation reactions. The progress of biotransformation was followed by liquid chromatography–mass spectrometry. In order to support the in vitro results, we performed in silico calculations using the Human Liver Microsome-based model for CYP-mediated oxidations provided by the Xenosite online tool.
Stock solutions of the studied compounds were prepared at a concentration of 10 mM in DMSO. […] The incubation mixture contained the studied derivative at a 10 μM concentration, 1 mM NADPH (Sigma-Aldrich) and 0.5 mg/mL of human liver microsomes (HLM, Sigma-Aldrich) in potassium phosphate buffer (0.1 M, pH 7.4). The incubation was carried out in a thermostat at 37 °C and started by the addition of the compound of interest. Then, 20 μL samples were taken after 5, 15, 30, 45 and 60 min. The enzymatic reaction was terminated by the addition of an equal volume of ice-cold acetonitrile containing 10 μM sulfamethoxazole as an internal standard. Control incubations were performed without NADPH as a negative control reflecting NADPH-independent processes, such as chemical degradation and precipitation. After collection, the samples were immediately centrifuged (10 min, 10,000 rpm), and the resulting supernatant was directly analyzed or kept at −80 °C until LC-MS analysis. The natural logarithm of a compound over the IS peak area ratio was plotted vs. the incubation time.
The LC-MS analysis was performed on an Agilent 1260 system coupled to SingleQuad 6120 mass spectrometer (Agilent Technologies, Santa Clara, CA, USA). Poroshell EC-C18 (2.1 mm × 150 mm, 2.7 μm, Agilent Technologies, Santa Clara, CA, USA) was used in reversed-phase mode with gradient elution starting with 90% of phase A (0.1% formic acid in water) and 10% of phase B (0.1% dormic acid in acetonitrile). […] The total analysis time was 21 min at 25 °C, the flow rate was 0.5 mL/min, and the injection volume was 20 μL. The mass spectrometer was equipped with an electrospray ion source and operated in positive ionization mode. The mass analyzer was set for each individual compound to detectthe [M+H]^+ protonated molecule. The MSD parameters of the ESI source were as follows: nebulizer pressure 40 psig (N2), drying gas […] (N2), drying gas temperature 300 °C, capillary voltage 3.0 kV, fragmentor voltage 150 V.

HeLa cells = assay: Cell cycle distribution analysis (PI staining, flow cytometry); format: cell-based, human; settings: 48 h; for percentage of cells in the sub-G1 phase of the cell cycle: HeLa, 5, 7 and 10 µM
Experimental: The effects of compounds 11, 12 and 13 on the cell cycle phase distribution of HeLa cells were assessed by flow cytometry. The cells were treated with 5, 7 and 10 µM concentrations of […] and 13 for 48 h and stained with PI.
Cell Cycle Distribution Analysis: The effects of 11, 12 and 13 on the cell cycle distribution in HeLa cells were determined by flow cytometry analysis. The cells were treated with 11, 12 and 13 (5, 7 and 10 µM) for 48 h, after which they were fixed in cold 70% ethanol for 24 h. The fixed cells were treated with 100 µg/mL of RNAse (Invitrogen, Germany) and stained with 10 µg/mL of PI (Invitrogen, Germany) for 30 min at RT. The acquisition was performed on a FACSCalibur cytometer (BD), and the data were analyzed with Flowing software (version 2.5).

| half-life at 10 μM [1] | Compound | percentage of cells in the sub-G1 phase of the cell cycle (HeLa cells) | relative metabolic stability in vitro ([1]; human liver microsomes with NADPH, order 12 > 13 > 11) | cell cycle arrest (HeLa cells; HeLa, 7 and 10 μM) |
| --- | --- | --- | --- | --- |
| 9.1 min | Cc1cc(S(=O)(=O)NC(=N)n2ccn(C)c2=S)c(SCc2ccc(Cl)cc2)cc1Cl [Compound 11, 4-Chloro-N-[imino(3-methyl-2-thioxo-2,3-dihydro-1H-imidazol-1-yl)methyl]-5-methyl-2-(4-chlorobenzylthio)benzenesulfonamide] | increase in the percentage of cells in the sub-G1 phase | – | – |
| 20.3 min | Cc1cc(S(=O)(=O)NC(=N)n2ccn(C)c2=S)c(SCc2cc3c(cc2Cl)OCO3)cc1Cl [Compound 12] | increase in the percentage of cells in the sub-G1 phase | exhibited the best stability in vitro among the studied set of compounds | induced G2/M arrest |
| 13.9 min | Cc1cc(S(=O)(=O)NC(=N)n2ccn(C)c2=S)c(SCc2cccc3ccccc23)cc1Cl [Compound 13, 4-Chloro-N-[imino(3-methyl-2-thioxo-2,3-dihydro-1H-imidazol-1-yl)methyl]-5-methyl-2-(naphthalen-1-ylmethylthio)benzenesulfonamide] | increase in the percentage of cells in the sub-G1 phase | – | – |
